{
  "source": "patent US20150175712A1",
  "about": "“ANTAGONIST TO AN ENZYME AND/OR A METABOLITE OF THE KYNURENINE PATHWAY” (ImmuSmol SAS, priority 2012, published 2015)",
  "key": {"tumor": {"tested_on": "tumor", "details": "Muller et al 2005; cited from earlier work"}, "[1]": {"tested_on": "CD4 positive helper T cells", "test": "Proliferation of helper T cells activated with CD3/CD28 antibodies (CFSE)", "format": "cell-based", "details": "3HAA 100 μM, 96 hours", "experimental": "FIG. 21: Suppression of anti-proliferative properties of 3HAA on helper T cells by a 3HAA monoclonal antibody (1B10). CD4 positive T cells were activated by anti CD3/CD28 antibodies cocktail and incubated for 96 hours with either vehicle, 3HAA at 100 μM or 3HAA (100 μM)+IgG anti 3HAA.\nWe evaluated the ability of the selected anti 3HAA antibody to block the suppressive effect of 3HAA on helper T cells activated with CD3/CD28 cocktail antibodies. Helper T cells were incubated with or without 3HAA and stained with CFSE (carboxyfluorescein succinimidyl ester). […] The selected anti 3HAA antibody is therefore able to inhibit, in vitro, the suppressive effect of 3HAA, e.g. on helper T cells."}, "[2]": {"details": "Pilotte et al 2012; cited from earlier work"}, "mastocytoma": {"tested_on": "mastocytoma", "details": "Pilotte et al 2012; cited from earlier work"}, "IDO": {"target": "IDO (Homo sapiens, UniProt P14902)", "sequence (P14902 whole entry, species assumed)": "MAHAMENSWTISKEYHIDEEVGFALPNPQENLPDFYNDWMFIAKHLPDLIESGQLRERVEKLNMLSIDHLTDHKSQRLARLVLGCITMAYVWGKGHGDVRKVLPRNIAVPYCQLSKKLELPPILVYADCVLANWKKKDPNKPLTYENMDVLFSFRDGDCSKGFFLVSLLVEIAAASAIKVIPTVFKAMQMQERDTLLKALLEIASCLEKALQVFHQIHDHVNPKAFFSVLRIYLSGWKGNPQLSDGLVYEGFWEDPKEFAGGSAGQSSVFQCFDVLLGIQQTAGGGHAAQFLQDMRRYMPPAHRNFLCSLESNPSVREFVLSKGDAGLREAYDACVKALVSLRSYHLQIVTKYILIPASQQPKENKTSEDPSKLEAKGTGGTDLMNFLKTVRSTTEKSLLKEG", "details": "Pilotte et al 2012; cited from earlier work"}},
  "note": "“Also recorded” adds a separate entry of the source.",
  "data": [
    {"smiles": "Cn1cc(C[C@H](N)C(=O)O)c2ccccc21", "note": "[Clone 1MT, 1-Methyl Tryptophan]", "values": [
      {"measurement": "anti-tumor benefits when administered alone", "setting": "tumor", "value": "weak"}
    ]},
    {"smiles": "Nc1c(O)cccc1C(=O)O", "note": "[Clone 3HAA, 3-Hydroxy Anthranilic Acid]", "values": [
      {"measurement": "Effect of 3HAA on proliferation of activated helper T cells", "setting": "[1]", "value": "blocked cell proliferation; also recorded: anergy of T cells was induced"}
    ]},
    {"smiles": "Fc1ccc2c(/C=C/c3nnn[nH]3)c[nH]c2c1", "note": "[LM-10, trans-6-Fluoro-3-[2-(1H-tetrazol-5-yl)vinyl]-1H-indole]", "values": [
      {"measurement": "solubility compared to 1MT", "setting": "[2]", "value": "higher"},
      {"measurement": "benefits in experimental model of mastocytoma", "setting": "mastocytoma", "value": "benefits"},
      {"measurement": "IDO inhibition", "setting": "IDO", "value": "does not inhibit"}
    ]}
  ]
}
